Each structure is given as a SMILES string. Where two headings read alike, the source gives them in different places.

One assay has as its system A-549. Put plainly: Inhibition of cell growth by counting cells, A-549. It counts as cell-based, human. The note with it: Homo sapiens, A549, 72 h, read-out: IC50 (molar) A-549. An outline of the steps:
(§1)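 Cells were seeded at 1×10^4 per well in EMEM with 5% FCS containing test sample and incubated 3 days at 37 °C, 5% CO2, in duplicate. Cells were then trypsinized and Coulter-counted, and growth was expressed relative to drug-free controls. IC50 (50% growth inhibition) was taken from dose-response curves.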

The test system of another assay is HT-29. Description: Inhibition of cell growth by counting cells, HT-29. It counts as cell-based, human. Conditions: Homo sapiens, HT-29, 72 h, read-out: IC50 (molar) HT-29. An outline of the steps: as §1
Another assay concerns DU-145. Put plainly: Inhibition of cell growth by counting cells, DU-145. The note with it: Homo sapiens, DU-145, 72 h, read-out: IC50 (molar) DU-145. Format: cell-based, human. An outline of the steps:
as §1

For another assay, the system named is P-388. Description: Inhibition of cell growth by counting cells, P-388. It counts as cell-based, mouse. The note with it: Mus musculus, P388, 72 h, read-out: IC50 (molar) P-388. The gist of the method: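 Mouse P-388 lymphoid neoplasm suspension cells seeded at 1×10^4 cells/well in EMEM 5% FCS containing graded sample concentrations, in duplicate alongside drug-free growth controls. Cells counted by Coulter counter; % growth vs untreated gives dose-response curves, IC50 = concentration producing 50% growth inhibition.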

The next assay concerns MEL-28. Description: Inhibition of cell growth by counting cells, MEL-28. Conditions: Homo sapiens, SK-MEL-28, 72 h, read-out: IC50 (molar) MEL-28. Format: cell-based, human. The gist of the method: as §1

As a reminder, the IC50 is the concentration needed to halve the response being measured. With `COc1cc2c(cc1OC(=O)OC(C)(C)C)CCN[C@]21CS[C@@H]2c3c(O)c(C)c4c(c3[C@H](COC1=O)N1C2[C@H]2c3c(cc(C)c(OC)c3O)C[C@@H]([C@@H]1C#N)N2C)OCO4` (stereo partly shown) [Compound 106], the IC50 in the assay with A-549 (three days of incubation), with HT-29 (three days of incubation), with DU-145 (three days of incubation), in the assay on P-388 (three days of incubation) and in the assay with MEL-28 (three days of incubation) was 1.21 nM in each case.
As to `COc1cc2c(cc1OC(=O)OC(C)(C)C)CCN[C@]21CS[C@@H]2c3c(OC(=O)C(F)(F)F)c(C)c4c(c3[C@H](COC1=O)N1C2[C@H]2c3c(cc(C)c(OC)c3O)C[C@@H]([C@@H]1C#N)N2C)OCO4` (stereo partly shown) [Compound 107], the IC50 with A-549 (three days of incubation), in the assay with HT-29 (three days of incubation), in the assay with DU-145 (three days of incubation), with P-388 (three days of incubation) and in the assay with MEL-28 (three days of incubation) was 1.08 nM in each case.
Take `CCCC(=O)Oc1c(C)c2c(c3c1[C@H]1SC[C@]4(NCCc5cc(OC(=O)OC(C)(C)C)c(OC)cc54)C(=O)OC[C@@H]3N3C1[C@H]1c4c(cc(C)c(OC)c4O)C[C@@H]([C@@H]3C#N)N1C)OCO2` (stereo partly shown) [Compound 111]: the IC50 in the assay with A-549 (three days of incubation), in the assay with HT-29 (three days of incubation), in the assay with DU-145, in the assay on P-388 (three days of incubation) and in the assay with MEL-28 (three days of incubation) was 1.11 nM throughout.
`COc1cc2c(cc1OC(=O)OC(C)(C)C)CCN[C@]21CS[C@@H]2c3c(OC(=O)/C=C/c4ccccc4)c(C)c4c(c3[C@H](COC1=O)N1C2[C@H]2c3c(cc(C)c(OC)c3O)C[C@@H]([C@@H]1C#N)N2C)OCO4` (stereo partly shown) [Compound 113]: the IC50 in the assay with A-549 (three days of incubation), in the assay on HT-29 (three days of incubation), in the assay with DU-145 (three days of incubation), in the assay with P-388 (three days of incubation) and with MEL-28 (three days of incubation) was 10.4 nM throughout.
Turning to `CCCCCCCC(=O)Oc1c(C)c2c(c3c1[C@H]1SC[C@]4(NCCc5cc(OC(=O)OC(C)(C)C)c(OC)cc54)C(=O)OC[C@@H]3N3C1[C@H]1c4c(cc(C)c(OC)c4O)C[C@@H]([C@@H]3C#N)N1C)OCO2` (stereo partly shown) [Compound 119], the IC50 in the assay with A-549 (three days of incubation), in the assay with HT-29 (three days of incubation), with DU-145 (three days of incubation), in the assay with P-388 (three days of incubation) and in the assay on MEL-28 (three days of incubation) was 10.5 nM in each case.
Regarding `CCCCCCCC(=O)Oc1c(C)c2c(c3c1[C@H]1SC[C@]4(NCCc5cc(OC(=O)OC(C)(C)C)c(OC)cc54)C(=O)OC[C@@H]3N3C1[C@H]1c4c(cc(C)c(OC)c4OC(=O)CCCCCCC)C[C@@H]([C@@H]3C#N)N1C)OCO2` (stereo partly shown) [Compound 120], the IC50 with A-549 (three days of incubation), in the assay on HT-29 (three days of incubation), with DU-145 (three days of incubation), in the assay on P-388 (three days of incubation) and with MEL-28 (three days of incubation) was 463 nM throughout.
With `CCCCCCCCCCCCCCCC(=O)Oc1c(C)c2c(c3c1[C@H]1SC[C@]4(NCCc5cc(OC(=O)OC(C)(C)C)c(OC)cc54)C(=O)OC[C@@H]3N3C1[C@H]1c4c(cc(C)c(OC)c4O)C[C@@H]([C@@H]3C#N)N1C)OCO2` (stereo partly shown) [Compound 121], the IC50 in the assay with A-549 (three days of incubation), in the assay on HT-29 (three days of incubation), in the assay with DU-145 (three days of incubation), in the assay on P-388 (three days of incubation) and with MEL-28 (three days of incubation) was 469 nM each time.
In the case of `CCCCCCCCCCCCCCCC(=O)Oc1c(C)c2c(c3c1[C@H]1SC[C@]4(NCCc5cc(OC(=O)OC(C)(C)C)c(OC)cc54)C(=O)OC[C@@H]3N3C1[C@H]1c4c(cc(C)c(OC)c4OC(=O)CCCCCCCCCCCCCCC)C[C@@H]([C@@H]3C#N)N1C)OCO2` (stereo partly shown) [Compound 122], the IC50 in the assay with A-549 (three days of incubation), in the assay on HT-29 (three days of incubation), in the assay on DU-145 (three days of incubation), in the assay with P-388 (three days of incubation) and in the assay on MEL-28 (three days of incubation) was 830 nM in each case.
As to `COc1cc2c(cc1OC(=O)OC(C)(C)C)CCN[C@]21CS[C@@H]2c3c(OCc4ccccc4)c(C)c4c(c3[C@H](COC1=O)N1C2[C@H]2c3c(cc(C)c(OC)c3O)C[C@@H]([C@@H]1C#N)N2C)OCO4` (stereo partly shown) [Compound 134], the IC50 in the assay on A-549, with HT-29, with DU-145, in the assay with P-388 and with MEL-28 was 0.544 nM in each case.
Regarding `COc1cc2c(cc1OC(=O)OC(C)(C)C)CCN[C@]21CS[C@@H]2c3c(OCc4ccccc4)c(C)c4c(c3[C@H](COC1=O)N1C2[C@H]2c3c(cc(C)c(OC)c3OCc3ccccc3)C[C@@H]([C@@H]1C#N)N2C)OCO4` (stereo partly shown) [Compound 135], the IC50 with A-549, in the assay with HT-29, in the assay on DU-145, with P-388 and in the assay on MEL-28 was 4.96 nM throughout.
In the case of `COc1cc2c(cc1O)CCN[C@]21CS[C@@H]2c3c(O)c(C)c4c(c3[C@H](COC1=O)N1C2[C@H]2c3c(cc(C)c(OC)c3O)C[C@@H]([C@@H]1C#N)N2C)OCO4` (stereo partly shown) [Compound 136], the IC50 in the assay with A-549 (three days of incubation), in the assay with HT-29 (three days of incubation), with DU-145 (three days of incubation), in the assay with P-388 (three days of incubation) and with MEL-28 (three days of incubation) was 0.137 nM each time.
Take `COc1cc2c(cc1O)CCN[C@]21CS[C@@H]2c3c(OC(=O)/C=C/c4ccccc4)c(C)c4c(c3[C@H](COC1=O)N1C2[C@H]2c3c(cc(C)c(OC)c3O)C[C@@H]([C@@H]1C#N)N2C)OCO4` (stereo partly shown) [Compound 137]: the IC50 in the assay on A-549 (three days of incubation), in the assay with HT-29 (three days of incubation), in the assay with DU-145 (three days of incubation), in the assay with P-388 (three days of incubation) and with MEL-28 (three days of incubation) was 0.117 nM throughout.
On to `CCCCCCCC(=O)Oc1c(C)c2c(c3c1[C@H]1SC[C@]4(NCCc5cc(O)c(OC)cc54)C(=O)OC[C@@H]3N3C1[C@H]1c4c(cc(C)c(OC)c4O)C[C@@H]([C@@H]3C#N)N1C)OCO2` (stereo partly shown) [Compound 144], for which the IC50 in the assay on A-549 (three days of incubation), with HT-29 (three days of incubation), with DU-145 (three days of incubation), in the assay with P-388 (three days of incubation) and in the assay with MEL-28 (three days of incubation) was 1.17 nM in each case.
For the compound `CCCCCCCCCCCCCCCC(=O)Oc1c(C)c2c(c3c1[C@H]1SC[C@]4(NCCc5cc(O)c(OC)cc54)C(=O)OC[C@@H]3N3C1[C@H]1c4c(cc(C)c(OC)c4O)C[C@@H]([C@@H]3C#N)N1C)OCO2` (stereo partly shown) [Compound 146], the IC50 in the assay with A-549 (three days of incubation), in the assay with HT-29 (three days of incubation), in the assay on DU-145 (three days of incubation), in the assay with P-388 (three days of incubation) and in the assay with MEL-28 (three days of incubation) was 103 nM throughout.
On to `COc1cc2c(cc1O)CCN[C@]21CS[C@@H]2c3c(OC(=O)C(F)(F)F)c(C)c4c(c3[C@H](COC1=O)N1C2[C@H]2c3c(cc(C)c(OC)c3O)C[C@@H]([C@@H]1C#N)N2C)OCO4` (stereo partly shown) [Compound 159], for which the IC50 in the assay with A-549 (three days of incubation), in the assay with HT-29 (three days of incubation), in the assay on DU-145 (three days of incubation), in the assay on P-388 (three days of incubation) and with MEL-28 (three days of incubation) was 1.37 nM each time.
With `CCCCCCCC(=O)Oc1c(C)c2c(c3c1[C@H]1SC[C@]4(NCCc5cc(O)c(OC)cc54)C(=O)OC[C@@H]3N3C1[C@H]1c4c(cc(C)c(OC)c4O)C[C@@H]([C@@H]3O)N1C)OCO2` (stereo partly shown) [Compound 168], the IC50 in the assay on A-549 (three days of incubation), in the assay on HT-29 (three days of incubation), in the assay on DU-145 (three days of incubation), with P-388 (three days of incubation) and in the assay on MEL-28 (three days of incubation) was 0.591 nM in each case.
Consider `COc1cc2c(cc1OC(C)=O)CCN[C@]21CS[C@@H]2c3c(OC(C)=O)c(C)c4c(c3[C@H](COC1=O)N1C2[C@H]2c3c(cc(C)c(OC)c3O)C[C@@H]([C@@H]1C#N)N2C(=O)OC(C)(C)C)OCO4` (stereo partly shown) [Compound 191], for which the IC50 with A-549 (three days of incubation), in the assay on HT-29 (three days of incubation), in the assay on DU-145 (three days of incubation), with P-388 (three days of incubation) and with MEL-28 (three days of incubation) was 1.11 nM throughout.

For the origin of these results see US7759345B2, “Antitumoral derivatives of ET-743” (priority 2001, dated 2010).
